Source: patent US9034866B2 (Genentech, Inc., priority 2012, dated 2015)
Read-outs that look alike come from different tables or passages of the source.

What was measured:
[1] = tested on: REL-A (p65) nuclear translocation in HeLa cells; assay: REL-A nuclear translocation assay (classical NF-kB signaling), high content imaging; type: cell-based; settings: Homo sapiens, HeLa, compounds 4.5 hours, then 10 ng/mL TNF-α for 30 minutes, read-out: REL-A HeLa Transloc Assay (IC50)
Procedure: (2) A second set of cell assay are used to define the selectivity of NIK inhibitors toward inhibition of classical vs. non-classical NF-kB signaling and rely on quantification of the nuclear translocation of p52 (NF-kB2) and REL-A (p65) using high content cellular imaging. For the p52 (non-classical NF-kB signaling) nuclear translocation assay, HeLa cells are treated with different concentrations of compounds (0.2% DMSO final) in medium containing 10% fetal bovine serum and then stimulated with 100 ng/mL, of an anti-lymphotoxin beta receptor antibody (R&D Systems) for 5 hours. In the REL-A nuclear translocation assay, HeLa cells are incubated with compounds (0.2% DMSO final) for 4.5 hours in medium containing 10% fetal bovine serum before stimulating them with 10 ng/mL tumor necrosis factor (TNF)-α (R&D Systems) for 30 minutes. Cells are fixed with 4% paraformaldehyde, permeabilized by adding 0.1% Triton X-100 in phosphate buffered saline, and then are incubated with either 2 ug/mL anti-p52 antibody (Millipore) or 400 ng/mL anti-REL-A (p65) antibody (Santa Cruz Biotechnology). Finally, the cells are incubated with an Alexa488-labeled secondary antibody (Invitrogen) and DRAQ5 DNA stain (Biostatus). Imaging is carried out using an Opera reader (Perkin Elmer) and data are analyzed with the aid of Acapella software (Perkin Elmer). The p52 or REL-A translocation into the nucleus is quantified by the ratio of the nuclear to cytoplasmic signal intensity. […] The compounds in listed in Table 1 have the corresponding inhibitory value (IC50 in micromolar) for NIK p52 Translocation Assay as set forth in Table 2.
The compounds in listed in Table 1 has the corresponding inhibitory value (IC50 in micromolar) for NIK RelA Translocation Assay as set forth in Table 2.

[2] = molecular target: nuclear factor-kappa B (NF-kB)-inducing kinase (NIK) (Homo sapiens (Human), UniProt Q99558); assay: NIK Enzyme Inhibition Assay (Transcreener ADP fluorescence polarization); type: biochemical; settings: read-out: NIK ADP-FP (Ki uM)
How it was run: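 Baculovirus/insect-cell-expressed NIK (0.2-1 nM) incubated with compounds 1-3.5 h at 10 uM ATP. Buffer: 50 mM HEPES pH 7.2, 10 mM MgCl2, 2 mM DTT, 1% DMSO. ADP detected by Transcreener fluorescence polarization (ADP antibody, AlexaFluor 633 tracer) after EDTA quench.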

[3] = purified NIK 0.2-1 nM, 10 uM ATP, Morrison's quadratic equation

Chain of nuclear factor-kappa B (NF-kB)-inducing kinase (NIK) (Q99558 whole entry): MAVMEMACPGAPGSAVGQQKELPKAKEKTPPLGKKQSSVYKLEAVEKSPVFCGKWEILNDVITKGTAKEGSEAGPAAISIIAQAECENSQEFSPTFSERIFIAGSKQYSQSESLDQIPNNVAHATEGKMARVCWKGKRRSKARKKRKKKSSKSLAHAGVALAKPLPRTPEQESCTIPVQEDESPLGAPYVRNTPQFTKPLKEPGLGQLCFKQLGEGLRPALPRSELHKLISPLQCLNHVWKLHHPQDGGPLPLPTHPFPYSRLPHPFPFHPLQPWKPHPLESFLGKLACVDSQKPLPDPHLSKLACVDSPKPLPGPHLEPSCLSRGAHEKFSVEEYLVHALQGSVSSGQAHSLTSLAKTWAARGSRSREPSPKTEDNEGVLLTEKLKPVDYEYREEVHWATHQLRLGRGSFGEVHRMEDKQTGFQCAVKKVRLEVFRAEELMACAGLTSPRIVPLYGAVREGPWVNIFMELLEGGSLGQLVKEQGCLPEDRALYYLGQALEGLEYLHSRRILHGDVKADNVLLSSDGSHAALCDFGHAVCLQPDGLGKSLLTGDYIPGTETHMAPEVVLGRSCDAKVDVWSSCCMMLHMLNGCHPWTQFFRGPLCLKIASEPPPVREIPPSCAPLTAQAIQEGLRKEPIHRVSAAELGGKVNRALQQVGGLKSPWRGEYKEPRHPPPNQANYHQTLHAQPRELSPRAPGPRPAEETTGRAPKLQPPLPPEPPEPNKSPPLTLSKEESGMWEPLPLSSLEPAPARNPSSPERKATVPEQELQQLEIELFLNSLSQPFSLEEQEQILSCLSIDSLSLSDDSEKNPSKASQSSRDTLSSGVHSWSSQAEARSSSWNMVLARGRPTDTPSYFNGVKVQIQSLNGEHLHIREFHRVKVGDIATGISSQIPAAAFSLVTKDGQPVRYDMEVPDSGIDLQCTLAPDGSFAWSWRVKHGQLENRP

| Structure (SMILES) | Ki [2, 3] | further results |
| --- | --- | --- |
| Cc1nc([C@](C)(O)C#Cc2ccc3c(c2)-c2nc(C(N)=O)sc2[C@@](C)(F)CO3)no1 |  | IC50 [1]: > 20 µM |
| Cc1nc([C@](C)(O)C#Cc2ccc3c(c2)-c2nc(C(N)=O)sc2[C@@H](C)CO3)no1 (racemic) |  | IC50 [1]: > 20 µM |
| Cc1nc([C@](C)(O)C#Cc2ccc3c(c2)-c2nc(C(N)=O)sc2[C@H](F)CO3)no1 [Example 464] |  | IC50 [1]: > 20 µM |
| Cc1cc([C@@](C)(O)C#Cc2ccc3c(c2)-n2nc(C(N)=O)cc2[C@@H](C)CO3)no1 [Example 519] |  | IC50 [1]: > 20 µM |
| C[C@@H]1COc2ccc(C#C[C@]3(O)CCCN(C)C3=O)cc2-c2nc(C(N)=O)sc21 [Example 493, 10-[2-[(3R)-3-hydroxy-1-methyl-2-oxo-pyrrolidin-3-yl]ethynyl]-N3-methyl-5,6,7,12-tetrahydro-5,7-methanobenzo[c]imidazo[1,2-a]azepine-2,3-dicarboxamide] |  | IC50 [1]: > 20 µM |
| CN1CCCC(NC(=O)c2c(C(N)=O)nc3n2CCOc2cc(F)c(C#CC(C)(C)O)cc2-3)C1 (stereo not shown) [Example 78] | 0.06 µM |  |
| CNC(=O)c1c(C(N)=O)nc2n1C1CC(C1)c1cc(F)c(C#C[C@@](C)(O)c3noc(C)n3)cc1-2 |  | Ki [2]: 0.051 µM |
| CC(C)(O)C#Cc1cc2c(cc1F)OCCn1c-2nc(C(N)=O)c1C(=O)NC1(C)COC1 [Example 60] | 0.025 µM |  |
| CC(O)(C#Cc1cc2c(cc1F)OCCn1cc(C(N)=O)nc1-2)c1cncnc1 (stereo not shown) [Example 18, 8-fluoro-9-(3-hydroxy-3-pyrimidin-5-yl-but-1-ynyl)-4,5-dihydro-6-oxa-1,3a-diaza-benzo[e]azulene-2-carboxylic acid amide] |  | Ki [2]: > 5 µM |
| Cc1cc([C@](C)(O)C#Cc2ccc3c(c2)-n2nc(C(N)=O)cc2C2(CCC2)CO3)no1 [Example 716, (R)-9-(3-hydroxy-3-(5-methylisoxazol-3-yl)but-1-yn-1-yl)-5H-spiro[benzo[b]py-razolo[1,5-d][1,4]oxazepine-4,1′-cyclo-butane]-2-carboxamide] | 0.008 µM |  |
| Cc1nnc([C@](C)(O)C#Cc2ccc3c(c2)-n2nc(C(N)=O)cc2C(C)CO3)o1 (stereo partly shown) [Example 497] | 0.039 µM |  |
| Cc1cc([C@](C)(O)C#Cc2ccc3c(c2)-c2nc(C(N)=O)c(C(=O)NCC4COC4)n2CCO3)no1 [Example 580, (R)-10-(3-hydroxy-3-(5-methylisoxazol-3-yl)but-1-yn-1-yl)-N3-(oxetan-3-ylmeth-yl)-5,6-dihydrobenzo[f]imidazo[1,2-d][1,4]oxazepine-2,3-dicarboxamide] | 0.0026 µM |  |
| CN1CC[C@@](O)(C#Cc2ccc3c(c2)-n2nc(C(N)=O)c(CO)c2CCO3)C1=O [Example 720, (R)-9-((3-hydroxy-1-methyl-2-oxopyrro-lidin-3-yl)ethynyl)-3-(hydroxymethyl)-4,5-dihydrobenzo[b]pyrazolo[1,5-d][1,4]oxazepine-2-carboxamide] | 0.001 µM |  |
| C[C@@](O)(C#Cc1ccc2c(c1)-n1nc(C(N)=O)cc1C(F)(F)CO2)c1cccnn1 | 1.6 µM |  |
| CN1CCCC(O)(C#Cc2ccc3c(c2)-c2nc(C(N)=O)cn2CCO3)C1=O (stereo not shown) [Example 158] | 0.0059 µM |  |
| CN1CCC(O)(C#Cc2ccc3c(c2)-c2nc(C(N)=O)cn2CCO3)C1=O (stereo not shown) | 0.004 µM |  |
| Cc1cc([C@](C)(O)C#Cc2ccc3c(c2)-n2nc(C(N)=O)cc2CCO3)no1 | 0.0066 µM |  |
| Cc1nc([C@](C)(O)C#Cc2ccc3c(c2)-n2nc(C(N)=O)cc2CCO3)no1 [Example 673, (R)-9-(3-hydroxy-3-(5-methyl-1,2,4-oxadiazol-3-yl)but-1-yn-1-yl)-4,5-dihydro-benzo[b]pyrazolo[1,5-d][1,4]oxazepine-2-carboxamide] | 0.045 µM |  |

Further lines, with some results ahead:

| Ki [2, 3] | Structure (SMILES) | further results |
| --- | --- | --- |
| > 5 µM | Cc1nnc(C(C)(C#Cc2ccc3c(c2)-c2nc(C(N)=O)cn2CCO3)CO)[nH]1 (stereo not shown) [Example 28, 9-[4-hydroxy-3-methyl-3-(5-methyl-4H-[1,24]triazol-3-yl)-but-1-ynyl]-4,5-di-hydro-6-oxa-1,3a-diaza-benzo[e]azulene-2-carboxylic acid amide] |  |
| > 5 µM | CC(O)(C#Cc1cc2c(cc1F)OCCn1cc(C(N)=O)nc1-2)C1(C)CC1 (racemic) [Example 64] |  |
| 0.54 µM | CC(C)(O)C#Cc1ccc2c(c1)-c1nc(C(N)=O)c(C(F)(F)F)n1CCO2 (racemic) [Example 198] |  |
| 0.304 µM | CC(O)(C#Cc1cc2c(cc1F)OCCn1cc(C(N)=O)nc1-2)C(=O)N1CC(C#N)C1 (stereo not shown) [Example 95] |  |
| 0.2 µM | CC(C)(O)C#Cc1ccc2c(c1)-c1nc(C(N)=O)c(Cn3ncc4cccnc43)n1CCO2 |  |
| 0.97 µM | CC(C)(O)C#Cc1ccc2c(c1)-c1nc(C(N)=O)sc1C(NC1CCC1)CO2 (stereo not shown) [Example 22, 4-cyclobutylamino-9-(3-hydroxy-3-meth-yl-but-1-ynyl)-4,5-dihydro-6-oxa-3-thia-1-aza-benzo[e]azulene-2-carboxylic acid amide] |  |
| 0.048 µM | CC(C)(O)C#Cc1cc2c(cc1F)OCCn1c-2nc(C(N)=O)c1C(=O)NCCN1CCCC1 (racemic) [Example 67] |  |
| > 5 µM | CC(C)(C#Cc1ccc2c(c1)-c1nc(C(N)=O)cn1CCO2)CO [Example 171] |  |
| 0.0021 µM | CC(O)(C#Cc1cc2c(cc1F)OCCc1sc(C(N)=O)nc1-2)c1ncn[nH]1 (stereo not shown) [Example 182, 8-fluoro-9-[3-hydroxy-3-(1H-1,2,4-tria-zol-5-yl)but-1-ynyl]-4,5-dihydro-[I]ben-zoxepino[5,4-d]thiazole-2-carboxamide] |  |
| > 5 µM | Cc1ncccc1C(C)(O)C#Cc1cc2c(cc1F)OCCn1cc(C(N)=O)nc1-2 (stereo not shown) [Example 19, 8-fluoro-9-[3-hydroxy-3-(2-methyl-pyri-din-3-yl)-bul-1-ynyl]-4,5-dihydro-6-oxa-1,3a-diaza-benzo[e]azulene-2-carboxy-lic acid amide] |  |
| 0.854 µM | CC(O)(C#Cc1cc2c(cc1F)OCCn1cc(C(N)=O)nc1-2)C(=O)NC1CC1 (stereo not shown) [Example 94] |  |
| 0.014 µM | COCC(C)(O)C#Cc1cc2c(cc1F)C1CC(C1)n1c-2nc(C(N)=O)c1C1CC1 (racemic) |  |
| 0.003 µM | CC(C)(O)C#Cc1cc2c(cc1F)OCCn1c-2nc(C(N)=O)c1-c1cc[nH]n1 [Example 35, 8-fluoro-9-(3-hydroxy-3-methyl-but-1-ynyl)-3-(1H-pyrazol-3-yl)-4,5-dihydro-6-oxa-1,3a-diaza-benzo[e]azulene-2-car-boxylic acid amide] |  |
| 0.003 µM | Cc1nc([C@](C)(O)C#Cc2ccc3c(c2)-c2nc(C(N)=O)cn2C2CC3C2)no1 |  |
| 1 µM | Cc1cc([C@](C)(O)C#Cc2ccc3c(c2)-c2nc(C(N)=O)c(C(=O)NC4CCOCC4)n2CCO3)no1 [Example 712, (R)-10-(3-hydroxy-3-(5-methylisoxazol-3-yl)but-1-yn-1-yl)-N3-(tetrahydro-2H-pyran-4-yl)-5,6-dihydrobenzo[f]imidazo[1,2-d][1,4]oxazepine-2,3-dicarboxamide] |  |
| 0.0019 µM | CC(C)(O)C#Cc1ccc2c(c1)-c1nc(C(N)=O)c(CN3CCC(C#N)C3)n1CCO2 (stereo not shown) |  |
| 3.9 µM | Cc1nc(C(C)(O)C#Cc2cc3c(cc2F)OCCn2cc(C(N)=O)nc2-3)n[nH]1 (stereo not shown) |  |
| 0.319 µM | CC(C)(O)C#Cc1ccc2c(c1)-c1nc(C(N)=O)cn1CCO2 [Example 2, 9-(3-hydroxy-3-methyl-but-1-ynyl)-4,5-dihydro-6-oxa-1,3a-diaza-benzo[e]azu-lene-2-carboxylic acid amide] |  |
| 0.00054 µM | CC(C)(O)C#Cc1ccc2c(c1)-c1nc(C(N)=O)c(CNC3COC3)n1CCO2 |  |
| 0.025 µM | Cc1c(C(N)=O)nc2n1CCOc1cc(F)c(C#CC(C)(C)O)cc1-2 [Example 34, 8-fluoro-9-(3-hydroxy-3-methyl-but-1-ynyl)-3-methyl-4,5-dihydro-6-oxa-1,3a-diaza-benzo[e]azulene-2-carboxylic acid amide] |  |
| 2.3 µM | NC(=O)c1cn2c(n1)-c1cc(C#CC3(O)CC(CO)C3)c(F)cc1OCC2 (stereo not shown) [Example 76] |  |
| 0.216 µM | CC(C)(O)C#Cc1ccc2c(c1)-c1nc(C(N)=O)sc1C(=O)CO2 [Example 9, 9-(3-hydroxy-3-methyl-but-1-ynyl)-4-oxo-4,5-dihydro-6-oxa-3-thia-1-aza-benzo-[e]azulene-2-carboxylic acid amide] |  |
| 0.142 µM | CC(O)C(C)(O)C#Cc1cc2c(cc1F)OCCn1cc(C(N)=O)nc1-2 (stereo not shown) [Example 142] |  |
| 0.022 µM | CC(C)(O)C#Cc1cc2c(cc1F)C1CC(C1)n1c-2nc(C(N)=O)c1C(O)c1ccn[nH]1 (stereo not shown) [Example 309, 9-fluoro-10-(3-hydroxy-3-methyl-but-1-ynyl)-3-[hydroxy(1H-pyrazol-5-yl)meth-yl]-5,6,7,12-tetrahydro-5,7-methanoben-zo[c]imidazo[1,2-a]azepine-2-carboxamide] |  |
| 0.033 µM | Cn1cc([C@H](O)c2c(C(N)=O)nc3n2CCOc2cc(F)c(C#CC(C)(C)O)cc2-3)cn1 |  |
